Measurements: PubChem BioAssay (NCI)
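Results reflect a 48-hour exposure of cells in 96-well plates to compound at five concentrations. TGI is the concentration that stops growth completely.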

Experiments:
Assay in all cases: NCI anticancer screen, dose series, 48 h
HCT-15 colon = system: HCT-15 colon
TK-10 renal = system: TK-10 renal
EKVX NSCLC = system: EKVX NSCLC
U251 CNS = system: U251 CNS
OVCAR-5 ovarian = system: OVCAR-5 ovarian
SK-MEL-5 melanoma = system: SK-MEL-5 melanoma
HOP-92 NSCLC = system: HOP-92 NSCLC
OVCAR-3 ovarian = system: OVCAR-3 ovarian
UACC-62 melanoma = system: UACC-62 melanoma
A549 NSCLC = system: A549 NSCLC
MOLT-4 leukemia = system: MOLT-4 leukemia
SNB-78 CNS = system: SNB-78 CNS
IGROV1 ovarian = system: IGROV1 ovarian
K-562 leukemia = system: K-562 leukemia
786-0 renal = system: 786-0 renal
NCI-H226 lung = system: NCI-H226 lung
KM20L2 colon = system: KM20L2 colon
NCI-H23 lung = system: NCI-H23 lung
RXF 393 renal = system: RXF 393 renal
SK-OV-3 ovarian = system: SK-OV-3 ovarian
SF-268 CNS = system: SF-268 CNS
SNB-19 CNS = system: SNB-19 CNS
SW-620 colon = system: SW-620 colon
LXFL 529 NSCLC = system: LXFL 529 NSCLC
MALME-3M melanoma = system: MALME-3M melanoma
HCT-116 colon = system: HCT-116 colon
M14 melanoma = system: M14 melanoma
HCC-2998 colon = system: HCC-2998 colon
HOP-62 NSCLC = system: HOP-62 NSCLC
SK-MEL-2 melanoma = system: SK-MEL-2 melanoma
SN12C renal = system: SN12C renal
OVCAR-4 ovarian = system: OVCAR-4 ovarian
HL-60(TB) leukemia = system: HL-60(TB) leukemia
ACHN renal = system: ACHN renal
SNB-75 CNS = system: SNB-75 CNS
CAKI-1 renal = system: CAKI-1 renal
KM12 colon = system: KM12 colon
DMS 114 small cell lung = system: DMS 114 small cell lung
UO-31 renal = system: UO-31 renal
LOX IMVI melanoma = system: LOX IMVI melanoma
T-47D breast = system: T-47D breast
PC-3 prostate = system: PC-3 prostate
MDA-N = system: MDA-N
CCRF-CEM leukemia = system: CCRF-CEM leukemia
SF-539 CNS = system: SF-539 CNS
BT-549 breast = system: BT-549 breast
UACC-257 melanoma = system: UACC-257 melanoma
NCI-H460 lung = system: NCI-H460 lung
OVCAR-8 ovarian = system: OVCAR-8 ovarian
NCI/ADR-RES ovarian = system: NCI/ADR-RES ovarian
MCF7 breast = system: MCF7 breast
SF-295 CNS = system: SF-295 CNS
COLO 205 colon = system: COLO 205 colon
RPMI-8226 leukemia = system: RPMI-8226 leukemia
A498 renal = system: A498 renal
HS 578T breast = system: HS 578T breast
MDA-MB-435 = system: MDA-MB-435
HT29 colon = system: HT29 colon
NCI-H522 lung = system: NCI-H522 lung
SK-MEL-28 melanoma = system: SK-MEL-28 melanoma
MDA-MB-231 breast = system: MDA-MB-231 breast
SR leukemia = system: SR leukemia
DU-145 prostate = system: DU-145 prostate

## Cc1ccccc1C(=O)C1CCCCC1O (centres undefined)
HCT-15 colon
  TGI: > 100 µM
TK-10 renal
  TGI: > 100 µM
EKVX NSCLC
  TGI: > 100 µM
U251 CNS
  TGI: > 100 µM
OVCAR-5 ovarian
  TGI: > 100 µM
SK-MEL-5 melanoma
  TGI: > 100 µM
HOP-92 NSCLC
  TGI: > 100 µM
OVCAR-3 ovarian
  TGI: > 100 µM
UACC-62 melanoma
  TGI: > 100 µM
A549 NSCLC
  TGI: > 100 µM
MOLT-4 leukemia
  TGI: > 100 µM
SNB-78 CNS
  TGI: > 100 µM
IGROV1 ovarian
  TGI: > 100 µM
K-562 leukemia
  TGI: > 100 µM
786-0 renal
  TGI: > 100 µM
NCI-H226 lung
  TGI: > 100 µM
KM20L2 colon
  TGI: > 100 µM
NCI-H23 lung
  TGI: > 100 µM
RXF 393 renal
  TGI: > 100 µM
SK-OV-3 ovarian
  TGI: > 100 µM
SF-268 CNS
  TGI: > 100 µM
SNB-19 CNS
  TGI: > 100 µM
SW-620 colon
  TGI: > 100 µM
LXFL 529 NSCLC
  TGI: > 100 µM
MALME-3M melanoma
  TGI: > 100 µM
HCT-116 colon
  TGI: > 100 µM
M14 melanoma
  TGI: > 100 µM
HCC-2998 colon
  TGI: > 100 µM
HOP-62 NSCLC
  TGI: > 100 µM
SK-MEL-2 melanoma
  TGI: > 100 µM
SN12C renal
  TGI: > 100 µM
OVCAR-4 ovarian
  TGI: > 100 µM
HL-60(TB) leukemia
  TGI: > 100 µM
ACHN renal
  TGI: > 100 µM
SNB-75 CNS
  TGI: > 100 µM
CAKI-1 renal
  TGI: > 100 µM
KM12 colon
  TGI: > 100 µM
DMS 114 small cell lung
  TGI: > 100 µM
UO-31 renal
  TGI: > 100 µM
LOX IMVI melanoma
  TGI: > 100 µM

## Clc1ccc2oc(CCc3ccccc3)nc2c1
HCT-15 colon
  TGI: > 100 µM
TK-10 renal
  TGI: > 100 µM
EKVX NSCLC
  TGI: > 100 µM
T-47D breast
  TGI: > 100 µM
PC-3 prostate
  TGI: > 100 µM
MDA-N
  TGI: > 100 µM
CCRF-CEM leukemia
  TGI: > 100 µM
U251 CNS
  TGI: > 100 µM
SF-539 CNS
  TGI: > 100 µM
OVCAR-5 ovarian
  TGI: > 100 µM
BT-549 breast
  TGI: > 100 µM
UACC-257 melanoma
  TGI: > 100 µM
SK-MEL-5 melanoma
  TGI: 55.4 µM
HOP-92 NSCLC
  TGI: > 100 µM
NCI-H460 lung
  TGI: > 100 µM
OVCAR-3 ovarian
  TGI: 85.1 µM
UACC-62 melanoma
  TGI: > 100 µM
OVCAR-8 ovarian
  TGI: > 100 µM
A549 NSCLC
  TGI: > 100 µM
MOLT-4 leukemia
  TGI: > 100 µM
NCI/ADR-RES ovarian
  TGI: > 100 µM
IGROV1 ovarian
  TGI: > 100 µM
MCF7 breast
  TGI: > 100 µM
K-562 leukemia
  TGI: > 100 µM
786-0 renal
  TGI: > 100 µM
NCI-H226 lung
  TGI: > 100 µM
SF-295 CNS
  TGI: > 100 µM
NCI-H23 lung
  TGI: > 100 µM
COLO 205 colon
  TGI: > 100 µM
RXF 393 renal
  TGI: 99.3 µM
SK-OV-3 ovarian
  TGI: > 100 µM
RPMI-8226 leukemia
  TGI: > 100 µM
SF-268 CNS
  TGI: > 100 µM
SNB-19 CNS
  TGI: > 100 µM
SW-620 colon
  TGI: > 100 µM
A498 renal
  TGI: 60 µM
HS 578T breast
  TGI: > 100 µM
MDA-MB-435
  TGI: > 100 µM
HT29 colon
  TGI: > 100 µM
MALME-3M melanoma
  TGI: > 100 µM
HCT-116 colon
  TGI: > 100 µM
NCI-H522 lung
  TGI: > 100 µM
SK-MEL-28 melanoma
  TGI: > 100 µM
MDA-MB-231 breast
  TGI: > 100 µM
M14 melanoma
  TGI: > 100 µM
HCC-2998 colon
  TGI: 77.1 µM
HOP-62 NSCLC
  TGI: > 100 µM
SK-MEL-2 melanoma
  TGI: > 100 µM
SR leukemia
  TGI: > 100 µM
SN12C renal
  TGI: > 100 µM
OVCAR-4 ovarian
  TGI: > 100 µM
HL-60(TB) leukemia
  TGI: > 100 µM
ACHN renal
  TGI: > 100 µM
SNB-75 CNS
  TGI: 62.8 µM
CAKI-1 renal
  TGI: > 100 µM
KM12 colon
  TGI: > 100 µM
DU-145 prostate
  TGI: > 100 µM
UO-31 renal
  TGI: > 100 µM
LOX IMVI melanoma
  TGI: > 100 µM
